# Test results taken from patent publication US8168221B2, “Composition 064” (AstraZeneca AB, priority 2007, dated 2012).
# What was measured:
# [1] = Compound (I) forced degradation study, solutions exposed to light at room temperature; type: physicochemical
# Method: (§1) The Compound (I), Compound (I) formyl hydrazide, and total impurities contents were determined using High Performance Liquid Chromatography HPLC. 10 μL sample was injected into a mobile phase comprising water/acetonitrile/formic acid in the ratios 900:100:2 (Eluent A)/400:600:2 (Eluent B), as defined by the gradient program in Table 1 below. Separation of impurities was performed using a column 15 cm long×4.6 mm internal diameter packed with Waters Symmetry C8 stationary phase having 3.5 μm particle size. […] “ND” in Tables 2 and 3 refers to “not determined”
# [2] = Compound (I) forced degradation study, aqueous buffer solutions protected from light; type: physicochemical; settings: for Compound (I) formyl hydrazide, % w/w (24 hours) / Compound (I) hydrazide, % w/w (24 hours) / Compound (I), % w/w (24 hours) / Compound (I), % w/w (initial) / Compound (I) formyl hydrazide, % w/w (initial): protected from light; for Compound (I), % w/w (initial): 0.5 mg/mL
# Method: as §1
structure (smiles),measurement,setting,value
"COc1nc(C)cnc1NS(=O)(=O)c1cccnc1-c1ccc(-c2nnco2)cc1 [Compound (I), N-(3-methoxy-5-methylpyrazin-2-yl)-2-(4-[1,3,4-oxadiazol-2-yl]phenyl)pyridine-3-sulphonamide]","Compound (I) formyl hydrazide, % w/w (24 hours)","[1]; pH 1.2, 24 hours",16.35 % w/w
same,"Compound (I) hydrazide, % w/w (24 hours)","[1]; pH 1.2, 24 hours",ND/0.32 % w/w
same,"Compound (I), % w/w (24 hours)","[1]; pH 1.2, 24 hours",82.33 % w/w
same,"Compound (I) formyl hydrazide, % w/w (initial)","[1]; pH 1.2, initial",1.39 % w/w
same,"Compound (I), % w/w (initial)","[1]; pH 1.2, initial",98.82 % w/w
same,"Compound (I) formyl hydrazide, % w/w (24 hours)","[1]; pH 3.0, 24 hours",0.30 % w/w
same,"Compound (I), % w/w (24 hours)","[1]; pH 3.0, 24 hours",95.76 % w/w
same,"Compound (I) formyl hydrazide, % w/w (initial)","[1]; pH 3.0, initial",0.05 % w/w
same,"Compound (I), % w/w (initial)","[1]; pH 3.0, initial",99.39 % w/w
same,"Compound (I), % w/w (24 hours)","[1]; pH 7.2, 24 hours",97.04 % w/w
same,"Compound (I), % w/w (initial)","[1]; pH 7.2, initial",98.78 % w/w
same,"Compound (I) formyl hydrazide, % w/w (24 hours)","[1]; pH 11.0, 24 hours",0.15 % w/w
same,"Compound (I), % w/w (24 hours)","[1]; pH 11.0, 24 hours",98.66 % w/w
same,"Compound (I) formyl hydrazide, % w/w (initial)","[1]; pH 11.0, initial",< 0.05 % w/w
same,"Compound (I), % w/w (initial)","[1]; pH 11.0, initial",99.91 % w/w
same,hydrolytic degradation (in words),[2]; low and high pH,subject to hydrolytic degradation at low and high pH
same,"Compound (I) formyl hydrazide, % w/w (24 hours)","[2]; pH 1.2, 37° C.",32.16 % w/w
same,"Compound (I) hydrazide, % w/w (24 hours)","[2]; pH 1.2, 37° C.",47.34 % w/w
same,"Compound (I), % w/w (24 hours)","[2]; pH 1.2, 37° C.",0.89 % w/w
same,"Compound (I), % w/w (initial)","[2]; pH 1.2, 37° C.",96.69/ % w/w
same,"Compound (I) formyl hydrazide, % w/w (initial)","[2]; pH 1.2, 37° C.",1.58/ % w/w
same,"Compound (I) formyl hydrazide, % w/w (24 hours)","[2]; pH 1.2, RT",59.83 % w/w
same,"Compound (I) hydrazide, % w/w (24 hours)","[2]; pH 1.2, RT",13.87 % w/w
same,"Compound (I), % w/w (24 hours)","[2]; pH 1.2, RT",23.04 % w/w
same,"Compound (I), % w/w (initial)","[2]; pH 1.2, RT",97.57/ % w/w
same,"Compound (I) formyl hydrazide, % w/w (initial)","[2]; pH 1.2, RT",1.99/ % w/w
same,"Compound (I) formyl hydrazide, % w/w (24 hours)","[2]; pH 3.0, 37° C.",3.09 % w/w
same,"Compound (I), % w/w (24 hours)","[2]; pH 3.0, 37° C.",96.56 % w/w
same,"Compound (I), % w/w (initial)","[2]; pH 3.0, 37° C.",99.43/ % w/w
same,"Compound (I) formyl hydrazide, % w/w (24 hours)","[2]; pH 3.0, RT",1.66 % w/w
same,"Compound (I) hydrazide, % w/w (24 hours)","[2]; pH 3.0, RT",<0.05 % w/w
same,"Compound (I), % w/w (24 hours)","[2]; pH 3.0, RT",84.70 % w/w
same,"Compound (I), % w/w (initial)","[2]; pH 3.0, RT",99.45/ % w/w
same,"Compound (I) hydrazide, % w/w (24 hours)","[2]; pH 7.2, 37° C.",<0.05 % w/w
same,"Compound (I), % w/w (24 hours)","[2]; pH 7.2, 37° C.",99.17 % w/w
same,"Compound (I), % w/w (initial)","[2]; pH 7.2, 37° C.",98.73/ % w/w
same,"Compound (I) hydrazide, % w/w (24 hours)","[2]; pH 7.2, RT",<0.05 % w/w
same,"Compound (I), % w/w (24 hours)","[2]; pH 7.2, RT",99.45 % w/w
same,"Compound (I), % w/w (initial)","[2]; pH 7.2, RT",99.14/ % w/w
same,"Compound (I) formyl hydrazide, % w/w (24 hours)","[2]; pH 11.0, 37° C.",4.16 % w/w
same,"Compound (I) hydrazide, % w/w (24 hours)","[2]; pH 11.0, 37° C.",<0.05 % w/w
same,"Compound (I), % w/w (24 hours)","[2]; pH 11.0, 37° C.",94.50 % w/w
same,"Compound (I), % w/w (initial)","[2]; pH 11.0, 37° C.",99.17/ % w/w
same,"Compound (I) formyl hydrazide, % w/w (24 hours)","[2]; pH 11.0, RT",1.35 % w/w
same,"Compound (I), % w/w (24 hours)","[2]; pH 11.0, RT",94.21 % w/w
same,"Compound (I), % w/w (initial)","[2]; pH 11.0, RT",98.68/ % w/w
same,"Compound (I) formyl hydrazide, % w/w (initial)","[2]; pH 11.0, RT",0.07/ % w/w
